Values joined by “and” are separate entries in the source; they are usually repeats but may differ in a detail not shown here. Equal values may be shown once. Inconclusive results and toxic doses are left out.
System: L1210 leukemia ip in BDF1 mice, survival T/C
Assay: NCI In Vivo Anticancer Drug Screen. Data for tumor model L1210 Leukemia (intraperitoneal) in B6D2F1 (BDF1) mice
Conditions: endpoint: mean survival time, higher = longer survival
Procedure, shortened: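 Ratio derived from survival: compound-dosed mice over vehicle-dosed mice, all bearing a transplantable tumor.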

[1] = dose: 50.0 mg/kg/injection, schedule: Q01DX001 (ip), vehicle: carboxymethylcellulose (CMC)
[2] = dose: 100.0 mg/kg/injection, schedule: Q01DX001 (ip), vehicle: carboxymethylcellulose (CMC)
[3] = dose: 100.0 mg/kg/injection, schedule: Q01DX001 (ip), vehicle: other
[4] = dose: 200.0 mg/kg/injection, schedule: Q01DX001 (ip), vehicle: carboxymethylcellulose (CMC)
[5] = dose: 200.0 mg/kg/injection, schedule: Q01DX001 (ip), vehicle: other
[6] = dose: 400.0 mg/kg/injection, schedule: Q01DX001 (ip), vehicle: other
[7] = dose: 100.0 mg/kg/injection, schedule: Q04DX003 (ip), vehicle: saline with Tween-80
[8] = dose: 200.0 mg/kg/injection, schedule: Q04DX003 (ip), vehicle: saline with Tween-80
[9] = dose: 400.0 mg/kg/injection, schedule: Q04DX003 (ip), vehicle: saline with Tween-80
[10] = dose: 25.0 mg/kg/injection, schedule: Q04DX002 (ip), vehicle: saline
[11] = dose: 50.0 mg/kg/injection, schedule: Q01DX001 (ip), vehicle: saline
[12] = dose: 100.0 mg/kg/injection, schedule: Q01DX009 (ip), vehicle: Klucel (hydroxypropylcellulose) (HPC)
[13] = dose: 200.0 mg/kg/injection, schedule: Q01DX009 (ip), vehicle: Klucel (hydroxypropylcellulose) (HPC)
[14] = dose: 400.0 mg/kg/injection, schedule: Q01DX009 (ip), vehicle: Klucel (hydroxypropylcellulose) (HPC)
[15] = dose: 50.0 mg/kg/injection, schedule: Q01DX009 (ip), vehicle: saline
[16] = dose: 100.0 mg/kg/injection, schedule: Q01DX009 (ip), vehicle: saline
[17] = dose: 50.0 mg/kg/injection, schedule: Q04DX002 (ip), vehicle: Klucel (hydroxypropylcellulose) (HPC)
[18] = dose: 100.0 mg/kg/injection, schedule: Q04DX002 (ip), vehicle: Klucel (hydroxypropylcellulose) (HPC)
[19] = dose: 100.0 mg/kg/injection, schedule: Q04DX003 (ip), vehicle: Klucel (hydroxypropylcellulose) (HPC)
[20] = dose: 200.0 mg/kg/injection, schedule: Q04DX003 (ip), vehicle: Klucel (hydroxypropylcellulose) (HPC)
[21] = dose: 100.0 mg/kg/injection, schedule: Q01DX009 (ip), vehicle: saline with Tween-80
[22] = dose: 200.0 mg/kg/injection, schedule: Q01DX009 (ip), vehicle: saline with Tween-80

## COc1cc(C=Nc2cc(Cl)cc(Cl)c2)ccc1N(CCCl)CCCl
dose: 10.5 mg/kg/injection, schedule: Q01DX015 (ip), vehicle: carboxymethylcellulose (CMC)
  T/C: 114 % of control and 116 % of control
dose: 18.0 mg/kg/injection, schedule: Q01DX015 (ip), vehicle: carboxymethylcellulose (CMC)
  T/C: 113 % of control and 117 % of control
dose: 30.0 mg/kg/injection, schedule: Q01DX015 (ip), vehicle: carboxymethylcellulose (CMC)
  T/C: 123 % of control
[1]
  T/C: 123 % of control
dose: 50.0 mg/kg/injection, schedule: Q01DX001 (ip), vehicle: other
  T/C: 105 % of control
dose: 50.0 mg/kg/injection, schedule: Q01DX015 (ip), vehicle: carboxymethylcellulose (CMC)
  T/C: 122 % of control
[2]
  T/C: 157 % of control
[3]
  T/C: 118 % of control
dose: 150.0 mg/kg/injection, schedule: Q01DX001 (ip), vehicle: carboxymethylcellulose (CMC)
  T/C: 116 % of control
[4]
  T/C: 123 % of control
[5]
  T/C: 123 % of control
[6]
  T/C: 111 % of control
dose: 800.0 mg/kg/injection, schedule: Q01DX001 (ip), vehicle: other
  T/C: 120 % of control

## O=C(/C=C/c1cccc2ccccc12)c1cccc([N+](=O)[O-])c1
dose: 100.0 mg/kg/injection, schedule: Q04DX002 (ip), vehicle: gum acacia
  T/C: 88 % of control
dose: 200.0 mg/kg/injection, schedule: Q04DX002 (ip), vehicle: gum acacia
  T/C: 92 % of control
dose: 400.0 mg/kg/injection, schedule: Q04DX002 (ip), vehicle: gum acacia
  T/C: 96 % of control

## COC(=O)CCCC1CC(=O)c2c(c(O)c3ccccc3c2O)C1=O (stereo not drawn)
dose: 100.0 mg/kg/injection, schedule: Q01DX005 (ip), vehicle: saline with Tween-80
  T/C: 92 % of control
[7]
  T/C: 119 % of control
dose: 200.0 mg/kg/injection, schedule: Q01DX005 (ip), vehicle: saline with Tween-80
  T/C: 95 % of control
[8]
  T/C: 105 % of control
dose: 400.0 mg/kg/injection, schedule: Q01DX005 (ip), vehicle: saline with Tween-80
  T/C: 97 % of control
[9]
  T/C: 103 % of control

## CC(=O)OC1CC2C=CC1CC2 (stereo not drawn)
[1]
  T/C: 111 % of control
[2]
  T/C: 101 % of control
[4]
  T/C: 95 % of control
dose: 400.0 mg/kg/injection, schedule: Q01DX001 (ip), vehicle: carboxymethylcellulose (CMC)
  T/C: 101 % of control

## NC(CCl)=NCc1ccccc1
dose: 6.25 mg/kg/injection, schedule: Q01DX009 (ip), vehicle: saline
  T/C: 97 % of control and 98 % of control
dose: 12.5 mg/kg/injection, schedule: Q01DX009 (ip), vehicle: saline
  T/C: 101 % of control and 115 % of control
dose: 25.0 mg/kg/injection, schedule: Q01DX001 (ip), vehicle: saline
  T/C: 98 % of control
[10]
  T/C: 105 % of control and 91 % of control
dose: 25.0 mg/kg/injection, schedule: Q04DX003 (ip), vehicle: saline
  T/C: 90 % of control
[11]
  T/C: 97 % of control
dose: 50.0 mg/kg/injection, schedule: Q04DX002 (ip), vehicle: saline
  T/C: 94 % of control and 89 % of control
dose: 50.0 mg/kg/injection, schedule: Q04DX003 (ip), vehicle: saline
  T/C: 97 % of control
dose: 100.0 mg/kg/injection, schedule: Q04DX003 (ip), vehicle: saline
  T/C: 95 % of control

## COc1ccc(OC)c(/C=C/c2ccc(NC(=O)C(Cl)(Cl)Cl)cc2)c1
[12]
  T/C: 98 % of control
[13]
  T/C: 93 % of control
[14]
  T/C: 102 % of control

## CC(C)OC(=S)S
dose: 25.0 mg/kg/injection, schedule: Q01DX009 (ip), vehicle: saline
  T/C: 100 % of control
[15]
  T/C: 94 % of control
[16]
  T/C: 93 % of control

## CC1OC(C)C(Cl)C1Cl (stereo not drawn)
[17]
  T/C: 110 % of control
[18]
  T/C: 95 % of control
dose: 200.0 mg/kg/injection, schedule: Q04DX002 (ip), vehicle: Klucel (hydroxypropylcellulose) (HPC)
  T/C: 100 % of control

## Nn1c(=O)[nH][nH]c1=O
[12]
  T/C: 113 % of control
[19]
  T/C: 97 % of control and 109 % of control
[13]
  T/C: 97 % of control
[20]
  T/C: 105 % of control and 91 % of control
dose: 400.0 mg/kg/injection, schedule: Q04DX003 (ip), vehicle: Klucel (hydroxypropylcellulose) (HPC)
  T/C: 109 % of control

## CN1C(c2ccco2)NC(=O)C12CCN(Cc1ccccc1)CC2 (stereo not drawn)
[2]
  T/C: 101 % of control
[4]
  T/C: 93 % of control

## NNC(=O)CNc1ccccc1F
dose: 25.0 mg/kg/injection, schedule: Q04DX002 (ip), vehicle: Klucel (hydroxypropylcellulose) (HPC)
  T/C: 113 % of control
[17]
  T/C: 102 % of control
[18]
  T/C: 102 % of control and 105 % of control

## CC(=O)NCS(=O)(=O)O
[16]
  T/C: 104 % of control
dose: 200.0 mg/kg/injection, schedule: Q01DX009 (ip), vehicle: saline
  T/C: 96 % of control

## CC(N)C(=O)c1ccccc1 (stereo not drawn)
[15]
  T/C: 97 % of control
[16]
  T/C: 92 % of control

## CN(C)N=Nc1ccccc1CO
dose: 1.0 mg/kg/injection, schedule: Q01DX009 (ip), vehicle: other
  T/C: 94 % of control
dose: 2.0 mg/kg/injection, schedule: Q01DX009 (ip), vehicle: other
  T/C: 103 % of control
dose: 4.0 mg/kg/injection, schedule: Q01DX009 (ip), vehicle: other
  T/C: 103 % of control
dose: 8.0 mg/kg/injection, schedule: Q01DX009 (ip), vehicle: other
  T/C: 103 % of control
dose: 25.0 mg/kg/injection, schedule: Q04DX003 (ip), vehicle: other
  T/C: 105 % of control
dose: 50.0 mg/kg/injection, schedule: Q04DX003 (ip), vehicle: other
  T/C: 120 % of control

## C[N+](C)(C)CCCCCC[Si](C)(C)C
dose: 5.0 mg/kg/injection, schedule: Q01DX001 (ip), vehicle: saline
  T/C: 110 % of control
dose: 10.0 mg/kg/injection, schedule: Q01DX001 (ip), vehicle: saline
  T/C: 108 % of control
dose: 20.0 mg/kg/injection, schedule: Q01DX001 (ip), vehicle: saline
  T/C: 104 % of control
dose: 40.0 mg/kg/injection, schedule: Q01DX001 (ip), vehicle: saline
  T/C: 108 % of control

## Cc1ccc2c(c1)nc1c3ccccc3nc(-c3ccccc3N)n21
[21]
  T/C: 89 % of control
[7]
  T/C: 104 % of control
[22]
  T/C: 87 % of control
[8]
  T/C: 91 % of control
[9]
  T/C: 104 % of control

## CCCCNC(c1ccccc1)=[N+]1CCCCC1
dose: 12.5 mg/kg/injection, schedule: Q04DX002 (ip), vehicle: saline
  T/C: 92 % of control
[10]
  T/C: 98 % of control

## Cc1ccc(Nc2cc(=O)[nH]c(N)n2)cc1Cl
dose: 100.0 mg/kg/injection, schedule: Q01DX Z (ip), vehicle: methylcellulose (MC)
  T/C: 86 % of control
dose: 200.0 mg/kg/injection, schedule: Q01DX Z (ip), vehicle: methylcellulose (MC)
  T/C: 103 % of control

## Oc1ccc(C(O)(c2ccccc2)c2ccc(O)c3ccccc23)c2ccccc12
[21]
  T/C: 96 % of control
[22]
  T/C: 91 % of control

## Cc1nnc(NC(=O)C(Cl)Cl)s1
[3]
  T/C: 96 % of control
[12]
  T/C: 96 % of control
dose: 100.0 mg/kg/injection, schedule: Q04DX003 (ip), vehicle: other
  T/C: 95 % of control
[5]
  T/C: 98 % of control
[13]
  T/C: 90 % of control
dose: 200.0 mg/kg/injection, schedule: Q04DX003 (ip), vehicle: other
  T/C: 96 % of control
[6]
  T/C: 101 % of control
[14]
  T/C: 93 % of control
dose: 400.0 mg/kg/injection, schedule: Q04DX003 (ip), vehicle: other
  T/C: 87 % of control

## CCOC(OCC)c1ccccc1
[11]
  T/C: 113 % of control
dose: 100.0 mg/kg/injection, schedule: Q01DX001 (ip), vehicle: saline
  T/C: 115 % of control
dose: 200.0 mg/kg/injection, schedule: Q01DX001 (ip), vehicle: saline
  T/C: 109 % of control
dose: 400.0 mg/kg/injection, schedule: Q01DX001 (ip), vehicle: saline
  T/C: 113 % of control

## NC(=O)c1ccccn1
dose: 50.0 mg/kg/injection, schedule: Q01DX009 (ip), vehicle: Klucel (hydroxypropylcellulose) (HPC)
  T/C: 98 % of control
dose: 50.0 mg/kg/injection, schedule: Q04DX003 (ip), vehicle: Klucel (hydroxypropylcellulose) (HPC)
  T/C: 100 % of control
[12]
  T/C: 95 % of control
[19]
  T/C: 102 % of control
[13]
  T/C: 87 % of control
[20]
  T/C: 101 % of control and 102 % of control
